{"source": "patent US20230405316A1", "about": "“COMPOSITIONS, SYSTEMS, AND METHODS FOR TREATING CANCER USING TUMOR TREATING FIELDS AND VEGF INHIBITORS” (Novocure Gmbh, priority 2022, published 2023)", "key": {"VEGFR-3": {"target": "VEGFR-3 (Homo sapiens, UniProt P35916)", "sequence (P35916 25-1363, species assumed)": "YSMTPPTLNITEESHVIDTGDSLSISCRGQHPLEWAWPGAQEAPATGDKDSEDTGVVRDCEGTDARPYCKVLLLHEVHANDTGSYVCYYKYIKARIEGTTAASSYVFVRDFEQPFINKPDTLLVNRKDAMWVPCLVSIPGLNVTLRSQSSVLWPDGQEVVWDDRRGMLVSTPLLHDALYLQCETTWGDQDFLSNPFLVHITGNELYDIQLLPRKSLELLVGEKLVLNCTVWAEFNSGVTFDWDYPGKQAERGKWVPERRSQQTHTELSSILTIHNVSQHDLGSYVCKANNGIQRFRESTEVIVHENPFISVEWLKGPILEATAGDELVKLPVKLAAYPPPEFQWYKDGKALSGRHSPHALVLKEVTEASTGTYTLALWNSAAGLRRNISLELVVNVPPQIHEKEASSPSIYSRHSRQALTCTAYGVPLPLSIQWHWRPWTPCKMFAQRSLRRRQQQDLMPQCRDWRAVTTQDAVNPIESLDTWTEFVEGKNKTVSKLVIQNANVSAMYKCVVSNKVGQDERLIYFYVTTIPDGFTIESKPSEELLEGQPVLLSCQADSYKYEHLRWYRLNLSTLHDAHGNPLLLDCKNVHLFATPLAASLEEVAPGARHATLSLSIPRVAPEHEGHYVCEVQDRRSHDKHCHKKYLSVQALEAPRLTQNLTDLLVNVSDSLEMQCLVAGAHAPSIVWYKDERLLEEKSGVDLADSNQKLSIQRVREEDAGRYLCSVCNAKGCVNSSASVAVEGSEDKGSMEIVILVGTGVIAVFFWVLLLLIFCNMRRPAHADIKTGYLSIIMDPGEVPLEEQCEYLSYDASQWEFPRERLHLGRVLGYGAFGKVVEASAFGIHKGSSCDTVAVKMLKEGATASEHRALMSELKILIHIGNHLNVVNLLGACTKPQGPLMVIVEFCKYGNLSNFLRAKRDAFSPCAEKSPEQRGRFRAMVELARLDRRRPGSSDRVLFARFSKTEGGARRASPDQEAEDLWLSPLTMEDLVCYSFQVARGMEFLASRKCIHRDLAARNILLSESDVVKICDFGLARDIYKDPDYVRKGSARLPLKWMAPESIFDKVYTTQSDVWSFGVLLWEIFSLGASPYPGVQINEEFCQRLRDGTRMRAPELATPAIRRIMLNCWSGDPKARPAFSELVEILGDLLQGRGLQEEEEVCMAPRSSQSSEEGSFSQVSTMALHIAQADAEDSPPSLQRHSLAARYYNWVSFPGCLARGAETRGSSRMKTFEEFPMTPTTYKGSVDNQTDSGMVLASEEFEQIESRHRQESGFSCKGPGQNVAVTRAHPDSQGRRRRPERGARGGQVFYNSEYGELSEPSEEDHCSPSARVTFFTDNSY", "conditions": "cited from earlier work"}, "VEGFR-2": {"target": "VEGFR-2 (Homo sapiens, UniProt P35968)", "sequence (P35968 20-1356, species assumed)": "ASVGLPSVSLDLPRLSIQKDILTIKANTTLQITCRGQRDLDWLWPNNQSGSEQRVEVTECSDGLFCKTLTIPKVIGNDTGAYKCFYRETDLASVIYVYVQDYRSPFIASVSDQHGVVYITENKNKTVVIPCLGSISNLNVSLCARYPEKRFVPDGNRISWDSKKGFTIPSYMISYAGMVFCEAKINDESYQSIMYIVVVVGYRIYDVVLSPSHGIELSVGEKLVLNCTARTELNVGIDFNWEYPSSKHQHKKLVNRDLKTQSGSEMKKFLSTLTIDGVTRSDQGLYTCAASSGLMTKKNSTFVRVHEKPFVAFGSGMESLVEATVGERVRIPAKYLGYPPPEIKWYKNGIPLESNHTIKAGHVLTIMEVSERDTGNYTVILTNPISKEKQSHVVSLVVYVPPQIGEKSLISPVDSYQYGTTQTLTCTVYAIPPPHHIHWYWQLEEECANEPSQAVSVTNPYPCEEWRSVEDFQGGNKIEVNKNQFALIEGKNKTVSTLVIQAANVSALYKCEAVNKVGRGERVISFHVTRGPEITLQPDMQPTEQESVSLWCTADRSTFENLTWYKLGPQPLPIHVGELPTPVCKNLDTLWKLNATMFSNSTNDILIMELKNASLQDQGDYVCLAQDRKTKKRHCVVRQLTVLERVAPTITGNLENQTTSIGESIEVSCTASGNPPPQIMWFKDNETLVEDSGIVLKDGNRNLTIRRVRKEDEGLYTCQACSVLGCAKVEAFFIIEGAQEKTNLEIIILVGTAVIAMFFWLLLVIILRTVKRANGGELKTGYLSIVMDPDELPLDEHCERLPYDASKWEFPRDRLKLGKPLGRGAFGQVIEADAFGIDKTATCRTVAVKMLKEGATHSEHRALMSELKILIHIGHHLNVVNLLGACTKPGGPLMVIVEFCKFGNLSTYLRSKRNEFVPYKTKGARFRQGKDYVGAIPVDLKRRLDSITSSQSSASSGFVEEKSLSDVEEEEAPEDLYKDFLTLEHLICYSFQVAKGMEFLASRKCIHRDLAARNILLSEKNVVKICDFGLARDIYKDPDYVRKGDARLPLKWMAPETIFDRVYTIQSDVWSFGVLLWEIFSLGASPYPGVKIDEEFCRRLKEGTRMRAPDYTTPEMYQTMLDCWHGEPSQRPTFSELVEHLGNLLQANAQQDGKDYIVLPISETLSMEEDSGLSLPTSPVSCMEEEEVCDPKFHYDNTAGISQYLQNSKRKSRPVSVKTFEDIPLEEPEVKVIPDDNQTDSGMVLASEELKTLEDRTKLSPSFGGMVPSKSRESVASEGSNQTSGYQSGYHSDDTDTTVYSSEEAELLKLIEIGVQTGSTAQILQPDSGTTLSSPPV", "conditions": "cited from earlier work"}, "VEGFR-1": {"target": "VEGFR-1 (Homo sapiens, UniProt P17948)", "sequence (P17948 27-1338, species assumed)": "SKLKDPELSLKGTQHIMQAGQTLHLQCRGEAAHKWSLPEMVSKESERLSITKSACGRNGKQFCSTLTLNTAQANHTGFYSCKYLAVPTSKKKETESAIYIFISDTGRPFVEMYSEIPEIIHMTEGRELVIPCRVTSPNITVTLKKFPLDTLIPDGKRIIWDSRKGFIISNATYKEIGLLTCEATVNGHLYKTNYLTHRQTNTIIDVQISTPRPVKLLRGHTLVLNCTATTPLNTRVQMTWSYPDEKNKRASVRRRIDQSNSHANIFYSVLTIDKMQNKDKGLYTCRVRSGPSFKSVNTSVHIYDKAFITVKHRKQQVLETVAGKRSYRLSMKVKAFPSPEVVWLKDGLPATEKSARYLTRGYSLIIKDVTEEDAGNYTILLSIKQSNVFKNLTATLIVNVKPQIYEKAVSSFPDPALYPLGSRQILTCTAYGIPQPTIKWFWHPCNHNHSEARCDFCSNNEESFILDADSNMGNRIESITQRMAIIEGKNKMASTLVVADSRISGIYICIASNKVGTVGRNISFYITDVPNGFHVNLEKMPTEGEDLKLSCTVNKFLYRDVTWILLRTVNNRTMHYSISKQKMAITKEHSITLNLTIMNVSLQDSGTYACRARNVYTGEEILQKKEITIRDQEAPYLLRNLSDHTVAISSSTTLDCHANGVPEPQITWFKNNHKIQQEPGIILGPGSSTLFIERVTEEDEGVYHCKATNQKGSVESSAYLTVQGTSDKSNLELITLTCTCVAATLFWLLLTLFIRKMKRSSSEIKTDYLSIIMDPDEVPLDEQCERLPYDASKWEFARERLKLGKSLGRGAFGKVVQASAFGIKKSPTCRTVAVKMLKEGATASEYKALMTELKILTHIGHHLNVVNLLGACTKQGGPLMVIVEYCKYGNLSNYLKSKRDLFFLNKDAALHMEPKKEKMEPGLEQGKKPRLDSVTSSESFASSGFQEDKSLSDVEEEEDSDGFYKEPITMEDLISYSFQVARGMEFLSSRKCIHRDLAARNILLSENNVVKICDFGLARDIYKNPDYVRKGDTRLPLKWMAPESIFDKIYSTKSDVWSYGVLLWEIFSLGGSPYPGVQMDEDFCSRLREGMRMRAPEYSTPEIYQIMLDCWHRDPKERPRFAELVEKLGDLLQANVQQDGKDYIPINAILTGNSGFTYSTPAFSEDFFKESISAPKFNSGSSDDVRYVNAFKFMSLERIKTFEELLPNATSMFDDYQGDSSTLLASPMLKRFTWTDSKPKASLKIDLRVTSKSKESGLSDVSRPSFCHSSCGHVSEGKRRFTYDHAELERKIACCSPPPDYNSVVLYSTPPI", "conditions": "cited from earlier work"}, "[1]": {"test_system": "ovarian carcinoma cell line (A2780)", "experiment": "Concomitant therapy with TTFields and lenvatinib, cell count and apoptosis", "assay_type": "cell-based", "conditions": "A2780 cells, 4 μM Lenvatinib combined with TTFields vs either therapy alone", "procedure": "FIG. 5 contains photomicrographs of A2780 cells following TTFields treatment alone, treatment with 4 μM Lenvatinib, and concomitant therapy with both TTFields and 4 μM Lenvatinib.\nIn particular, the combinatorial effect of TTFields and lenvatinib was examined in an ovarian carcinoma cell line (A2780)."}}, "note": "Where a name gives a salt, the structure may show the parent alone."}
{"smiles": "COc1cc2c(Oc3ccc4[nH]c(C)cc4c3F)ccnc2cc1OCC1(N)CC1", "note": "[Anlotinib]", "values": [{"measurement": "IC50 for VEGFR-3", "setting": "VEGFR-3", "result": "Does not bind"}, {"measurement": "IC50", "setting": "VEGFR-2", "result": "< 1", "unit": "nM"}, {"measurement": "IC50 for VEGFR-1", "setting": "VEGFR-1", "result": "Does not bind"}]}
{"smiles": "COc1cc2nccc(Oc3ccc(NC(=O)C4(C(=O)Nc5ccc(F)cc5)CC4)cc3)c2cc1OC", "note": "[Cabozantinib]", "values": [{"measurement": "IC50 for VEGFR-3", "setting": "VEGFR-3", "result": "Does not bind"}]}
{"smiles": "COc1cc2nccc(Oc3ccc(NC(=O)Nc4ccc(F)cc4F)c(F)c3)c2cc1OC", "note": "[Ki8751]", "values": [{"measurement": "IC50", "setting": "VEGFR-2", "result": 0.9, "unit": "nM"}]}
{"smiles": "COc1cc2nccc(Oc3ccc(NC(=O)NC4CC4)c(Cl)c3)c2cc1C(N)=O", "note": "[Lenvatinib]", "values": [{"measurement": "effect of concomitant therapy on apoptosis", "setting": "[1]", "result": "enhanced effect over either therapy alone"}, {"measurement": "effect of concomitant therapy on cell count", "setting": "[1]", "result": "enhanced effect over either therapy alone"}]}
{"smiles": "Cc1c(C(=O)Nc2ccc(Oc3ccnc4cc(OCC(C)(C)O)ccc34)c(F)c2)c(=O)n(-c2ccccc2)n1C", "note": "[Ningetinib]", "values": [{"measurement": "IC50", "setting": "VEGFR-2", "result": 1.9, "unit": "nM"}]}
{"smiles": "Cn1cc(-c2ccc3c(c2)ncn3-c2cc(NS(=O)(=O)C3CC3)cc(-c3ccc(F)cc3F)c2)cn1", "note": "[ODM-203]", "values": [{"measurement": "IC50", "setting": "VEGFR-3", "result": 5, "unit": "nM"}, {"measurement": "IC50", "setting": "VEGFR-2", "result": 9, "unit": "nM"}, {"measurement": "IC50", "setting": "VEGFR-1", "result": 26, "unit": "nM"}]}
{"smiles": "COc1cc2c(cc1F)C(c1ccccc1Cl)=Nc1c(n[nH]c1C)N2", "note": "[R1530]", "values": [{"measurement": "IC50", "setting": "VEGFR-2", "result": 10, "unit": "nM"}]}
{"smiles": "Cc1[nH]c(/C=C2\\C(=O)Nc3ccc(F)cc32)c(C)c1C(=O)NC[C@H](O)CN1CCOCC1", "note": "[SU14813]", "values": [{"measurement": "IC50", "setting": "VEGFR-2", "result": 50, "unit": "nM"}, {"measurement": "IC50", "setting": "VEGFR-1", "result": 2, "unit": "nM"}]}
{"smiles": "CNC(=O)c1cc2c(Oc3ccc(NC(=O)C4(C(=O)Nc5ccc(F)cc5)CC4)cc3)ccnc2cc1OC", "note": "[XL092]", "values": [{"measurement": "IC50", "setting": "VEGFR-2", "result": 1.6, "unit": "nM"}]}
{"smiles": "Cc1cc(F)c(Nc2ncnc3cc(OCc4ccccc4)ccc23)cc1O", "note": "[ZM 323881 HCl]", "values": [{"measurement": "IC50", "setting": "VEGFR-2", "result": "< 2", "unit": "nM"}]}
